Assay results from patent publication US10369145B2, “Coumarin derivatives and methods of use in treating hyperproliferative diseases” (DISCOVERYBIOMED, INC., priority 2013, dated 2019).

Tests used:
HL-60 = experiment: NCI 60 panel: HL-60 (Leukemia); format: cell-based
From the text: (§5) TGI means the drug concentration resulting in total growth inhibition or “cytostasis.” LC50 is the concentration of drug resulting in a 50% reduction in the measured cytosolic ATP at the end of the drug treatment as compared to that at the beginning, indicating a net loss of cells following treatment (cytotoxicity).

MOLT-4 = experiment: NCI 60 panel: MOLT-4 (Leukemia); format: cell-based
From the text: as §5

HOP-92 = experiment: NCI 60 panel: HOP-92 (Non-Small Cell Lung Cancer); format: cell-based
From the text: as §5

NCI-H322M = experiment: NCI 60 panel: NCI-H322M (Non-Small Cell Lung Cancer); format: cell-based
From the text: as §5

COLO 205 = experiment: NCI 60 panel: COLO 205 (Colon Cancer); format: cell-based
From the text: as §5

SW-620 = experiment: NCI 60 panel: SW-620 (Colon Cancer); format: cell-based
From the text: as §5

SF-268 = experiment: NCI 60 panel: SF-268 (CNS Cancer); format: cell-based
From the text: as §5

SNB-75 = experiment: NCI 60 panel: SNB-75 (CNS Cancer); format: cell-based
From the text: as §5

U251 = experiment: NCI 60 panel: U251 (CNS Cancer); format: cell-based
From the text: as §5

LOX IMVI = experiment: NCI 60 panel: LOX IMVI (Melanoma); format: cell-based
From the text: as §5

IGROV1 = experiment: NCI 60 panel: IGROV1 (Ovarian Cancer); format: cell-based
From the text: as §5

CAKI-1 = experiment: NCI 60 panel: CAKI-1 (Renal Cancer); format: cell-based
From the text: as §5

PC-3 = experiment: NCI 60 panel: PC-3 (Prostate Cancer); format: cell-based
From the text: as §5

MCF7 = experiment: NCI 60 panel: MCF7 (Breast Cancer); format: cell-based
From the text: as §5

MDA-MB-231 = experiment: NCI 60 panel: MDA-MB-231 (Breast Cancer); format: cell-based
From the text: as §5

SK-OV-3 = experiment: Complementary DBM in vitro profiling: SK-OV-3 (Ovarian Cancer); format: cell-based
Procedure: (§1) The compounds described herein are effective for inhibiting cellular proliferation in hyperproliferative cell types. To study the effects of these compounds, an assay was developed to differentiate the effects of the compounds on proliferating versus confluent cells. The assay design generates a proliferating density 24 hours after seeding and provides a 3-day active cell growth/doubling window in which to gauge the anti-proliferative effect of the compounds described herein. […] In this 3-day growth window, cell number increases with daily doublings across the 72-hour period (see FIG. 1).
(§2) In each assay design, compounds were added at the 24-hour timepoint after cell seeding. The effect of the compounds, relative to vehicle control and to VelCade (a proteasome inhibitor approved in the U.S. for treating relapsed multiple myeloma and mantle cell lymphoma) as a positive control, was assessed across the 3-day growth window for proliferating cells and on an already near confluent culture of cells for the same time period. Normal cells were handled in the same manner, with some adjustment of seeding density needed in select cases. […]
(§3) Cell number at the end of the assay was determined using the CELLTITER-GLO Luminescent Cell Viability Assay (Promega; Madison, Wis.). The CELLTITER-GLO Luminescent Cell Viability Assay is a homogeneous method of determining the number of viable cells in culture based on quantitation of the ATP present, an indicator of metabolically active cells. IC50 values were calculated. […]
(§4) For a typical screening experiment to identify the compounds, cells were seeded into 96- or 384-well microtiter plates at plating densities pre-determined for each cell line to ensure drug exposure occurs during the proliferative phase well before confluency is reached. […] Values were calculated for each of these three parameters if the level of activity was reached; however, if the effect was not reached or was exceeded, the value for that parameter was expressed as greater or less than the maximum or minimum concentration tested.

FaDu = experiment: Complementary DBM in vitro profiling: FaDu (Hypopharyngeal Cancer); format: cell-based
Procedure: as §1, §2, §3, §4

myeloma cells = format: cell-based
Procedure: as §4, with “reached. After seeding, cells were incubated for 24 h prior to addition of experimental drugs. After 24 h, a test plate was assayed (CellTiterGlo—measurement of cytosolic ATP) to determine a baseline measurement of the cell population for each cell line at the time of drug addition. Experimental drugs were then added and cells were cultured for a 48 h drug exposure window.” for “reached.”

[1] = tested on: WT cells (cloned non-cystic kidney tissue cells); experiment: Concentration-response in primary cultures cloned from non-cystic kidney tissue; format: cell-based; conditions: 72 hour treatment
Procedure: The concentration-response effects of Compound DBM 228, Compound DBM 308, Compound DBM 101, and Compound DBM 328 were determined in primary cultures derived as ‘clones’ from cystic versus non-cystic kidney tissue. CRC graphs, IC50 values, and the percent maximum inhibition versus lowest doses without effect were calculated with GraphPad Prism software. […] There was also a marked separation in effect between hyperproliferative PKD cells (FIG. 5A and Table 3) and WT cells (FIG. 5B and Table 4).

[2] = tested on: U251MG glioblastoma cells; experiment: Propidium iodide-based cell cycle analysis; conditions: 24 h
Procedure: Cell cycle analysis was performed on U251-MG cells to determine at what point in the cell cycle the compounds described herein were acting. U251MG glioblastoma cells were treated for 24 h with increasing concentrations of Compound DBM 228.
However, at higher nM doses, the cells appear to progress toward apoptosis and programmed cell death, given the higher % of cells in pre-G0/G1.

[3] = read-out: LC50 (the source's name)
[4] = myeloma cells, 48 h drug exposure

Molecule `COc1ccccc1Nc1nc(-c2cc3cccc(N)c3oc2=O)cs1` [Compound DBM 228] has a GI50 (HL-60) of 0.034 µM, a TGI (HL-60) of 0.137 µM and a CC50 (HL-60; [3]) of 0.825 µM. It also gave a GI50 (MOLT-4) of 0.168 µM, a TGI (MOLT-4) of 17.8 µM and a CC50 (MOLT-4; [3]) greater than 100 µM. The GI50 (HOP-92) was 1.45 µM, the TGI (HOP-92) was 24.7 µM and the CC50 (HOP-92; [3]) was greater than 100 µM. The GI50 (NCI-H322M) was 0.672 µM, the TGI (NCI-H322M) was 25.9 µM and the CC50 (NCI-H322M; [3]) was 93.3 µM. The GI50 (COLO 205) was 0.337 µM, the TGI (COLO 205) was 1.8 µM and the CC50 (COLO 205; [3]) was greater than 100 µM. It also gave a GI50 (SW-620) of 0.064 µM, a TGI (SW-620) greater than 100 µM and a CC50 (SW-620; [3]) greater than 100 µM. The GI50 (SF-268) was 0.77 µM, the TGI (SF-268) was 55.3 µM and the CC50 (SF-268; [3]) was greater than 100 µM. For the same molecule, the GI50 (SNB-75) was 0.0481 µM, the CC50 (SNB-75; [3]) was greater than 100 µM and the GI50 (U251) was 0.0468 µM. The TGI (U251) was 10.6 µM, the CC50 (U251; [3]) was 35.7 µM and the GI50 (LOX IMVI) was 0.9 µM. The TGI (LOX IMVI) was 50.8 µM, the CC50 (LOX IMVI; [3]) was greater than 100 µM and the GI50 (IGROV1) was 1.23 µM. For the same molecule, the TGI (IGROV1) was 23.4 µM, the CC50 (IGROV1; [3]) was greater than 100 µM and the GI50 (CAKI-1) was 0.115 µM. It also gave a TGI (CAKI-1) of 27.9 µM, a CC50 (CAKI-1; [3]) greater than 100 µM and a GI50 (PC-3) of 0.27 µM. For the same molecule, the TGI (PC-3) was 36 µM, the CC50 (PC-3; [3]) was greater than 100 µM and the GI50 (MCF7) was 0.0545 µM. It also gave a TGI (MCF7) greater than 100 µM, a CC50 (MCF7; [3]) greater than 100 µM and a GI50 (MDA-MB-231) of 1.37 µM. It also gave a TGI (MDA-MB-231) of 12 µM, a CC50 (MDA-MB-231; [3]) greater than 100 µM and a GI50 (SK-OV-3) of 0.845 µM. It also gave a TGI (SK-OV-3) greater than 30 µM, a CC50 (SK-OV-3; [3]) greater than 30 µM and a GI50 (FaDu) of 1.4 µM. It also gave a TGI (FaDu) of 8.74 µM, a CC50 (FaDu; [3]) of 27.5 µM and a CC50 (myeloma cells) greater than 4 µM. For the same molecule, the GI50 (myeloma cells; [4]) was 0.16 µM, the TGI (myeloma cells; [4]) was 0.271 µM and the IC50 [1] was greater than 100 µM. The Max inhibition [1] was 49%, the “percentage of cells in G0/G1” value ([2]; 40 nM) was 52.2% and the “percentage of cells in G2/M” value ([2]; 40 nM) was 30.2%. The “percentage of cells in Pre-G0/G1” value ([2]; 40 nM) was 3.2%, the “percentage of cells in S” value ([2]; 40 nM) was 14.4% and the “percentage of cells in G0/G1” value ([2]; 100 nM) was 19.7%. The “percentage of cells in G2/M” value ([2]; 100 nM) was 41.1%, the “percentage of cells in Pre-G0/G1” value ([2]; 100 nM) was 13.6% and the “percentage of cells in S” value ([2]; 100 nM) was 25.6%. For the same molecule, the “percentage of cells in G0/G1” value ([2]; 400 nM) was 1.8%, the “percentage of cells in G2/M” value ([2]; 400 nM) was 49.3% and the “percentage of cells in Pre-G0/G1” value ([2]; 400 nM) was 43.1%. For the same molecule, the “percentage of cells in S” value ([2]; 400 nM) was 5.8% and the “cell cycle effect, in words” value ([2]; increasing concentrations) was “G2/M arrest”.
